# Test results reported in publication PMC9814901, “One-pot synthesis of cyclic-aminotropiminium carboxylate derivatives with DNA binding and anticancer properties” (Communications Chemistry, 2022).
# Columns and labels:
# HeLa cells [1] = test: MTS cell viability assay in HeLa; type: cell-based; details: 10 nM to 50 μM, 18 h
# Procedure: We investigated the effect of nine cATC derivatives (6b/6d/6e/6f/6i/6j/6k/6l/6n) on cell viability in cancer cell-line HeLa and transformed normal cell-line HEK293. We treated cells with the varying concentrations of the compounds ranging from 10 nM to 50 μM for 18 h (optimized).
# MTS assay (CellTiter 96® AQueous One Solution Cell Proliferation Assay (Promega, USA) was used to determine the cell viability. HeLa and HEK293 cells (20,000 cells in each well) were plated in 96 well plate and treated with 6e, 6j, and 6n varying concentrations of the compounds ranging from 10 nM to 50 μM for 18 h. The assay was carried out according to the manufacturer’s instructions. Finally, the plate was read in Varioskan™ LUX multimode microplate reader (Thermo Fisher Scientific) at 490 nm.
# Cell scavenging activity was calculated using the following formula:
# OD(490nm) (control) – OD(490nm) (Test)/OD(490nm) (control) × 100%
# Cell Viability of the cell was calculated using the following formula: […]
# HeLa cells [2] = test: cells; design: MTS cell viability assay, absorbance at 490 nm; details: Homo sapiens, 18 h; read-out: IC50 concentration in (µM), HeLa
# Procedure: MTS assay (CellTiter 96® AQueous One Solution Cell Proliferation Assay (Promega, USA) was used to determine the cell viability. HeLa and HEK293 cells (20,000 cells in each well) were plated in 96 well plate and treated with 6e, 6j, and 6n varying concentrations of the compounds ranging from 10 nM to 50 μM for 18 h. The assay was carried out according to the manufacturer’s instructions. Finally, the plate was read in Varioskan™ LUX multimode microplate reader (Thermo Fisher Scientific) at 490 nm. We investigated the effect of nine cATC derivatives (6b/6d/6e/6f/6i/6j/6k/6l/6n) on cell viability in cancer cell-line HeLa and transformed normal cell-line HEK293. We treated cells with the varying concentrations of the compounds ranging from 10 nM to 50 μM for 18 h (optimized). […] Cell scavenging for 6e and 6j at 50 μM was 84.74% and 89.87%, respectively, and for 6n at 30 μM it was 75.43%. Corresponding cell viability was 15.25%, 10.13% and, 24.56%, respectively. Fluorescence signal became visible inside cells at 12 μM, 12 μM, and 20 μM concentrations for 6e, 6j, and 6n, respectively (SM, Figs. S31, S34, S37). […] Scavenging activity for 6e, 6j, and 6n was 61.1%, 18.23%, and 30.1%, respectively at 30 μM concentration (Fig. 5D–F). Corresponding cell viability was 38.82%, 81.76%, and 69.86%, respectively. The IC50 value of all the compounds was at the micromolar (μM) level which is shown in the Supplemental Material (Table S9 and S10).
# ct-DNA duplex = test: Circular dichroism of ct-DNA with cATC derivatives; type: binding; details: increasing concentration of cATC derivatives
# Excerpt: Further, we examined the effect of cATC derivatives (6a/6e/6j/6n) on the ct-DNA duplex structure by circular dichroism (CD) studies. We recorded the CD spectra of ct-DNA with the increasing concentration of cATC derivatives (SM, Fig. S24). […] Next, we examined the binding site of cATC derivative (ligand) at the DNA duplex structure by using AutoDock-Vina, a well-reported computational docking program. We performed docking of cATC derivatives (6a/6d/6k) crystal structure (ligand) with dodecamer DNA duplex crystal structure (PDB ID-1BNA) as the receptor. Our docking results strongly support the non-covalent interaction of cATC derivatives (6a/6d/6k) at the DNA-minor groove with the binding affinity ~7.0 Kcal/mole, mostly hydrophobic interactions (SM, Figs. S25–7, Table S8). […] Overall, cATC derivatives non-covalently bind with DNA duplex through the non-intercalative mode without affecting the native duplex structure. Next, we examined the DNA binding affinity of cATC derivatives (6e/6j/6n) by gel-electrophoresis. The different concentrations of human genomic DNA were treated with EtBr (control) and cATC derivatives (6e/6j/6n) and ran on 1% agarose gel (SM, Fig. S28A–D). […] Further, the Microscale thermophoresis (MST) technique was used to calculate the binding affinities of cATC derivatives (6e/6j/6n) (20 µM) with varying concentrations of human genomic DNA (40 fM to 75 pM).
IC50 (HeLa cells [2]) [µM],melting point [°C],SMILES,effect on HeLa cell proliferation (HeLa cells [1]),effect on B-type duplex CD spectrum of ct-DNA (ct-DNA duplex)
> 50,,COc1cc(OC)cc(C2C(C(=O)[O-])N(CCc3ccccc3)c3ccccc[c+]3N2Cc2ccccc2)c1 (stereo not drawn) [Compound 6b],no or minimal effect,
,135 to 140,"O=C([O-])C1C(c2ccccc2)N(Cc2ccccc2)[c+]2cccccc2N1CCc1ccccc1 (stereo not drawn) [Compound 6a, N-benzyl-N-phenylethyl phenyl troponyl dihydropyrazinium carboxylate]",,almost remained unchanged
,118 to 120,O=C([O-])C1C(C=Cc2ccccc2)N(Cc2ccccc2)[c+]2cccccc2N1CCc1ccccc1 (stereo not drawn) [Compound 6n],,
> 50,,O=C([O-])C1C(c2ccc(O)cc2)N(C2CCCCC2)[c+]2cccccc2N1CCc1ccccc1 (stereo not drawn) [Compound 6l],no or minimal effect,
> 50,,N#Cc1ccc(C2C(C(=O)[O-])N(CCc3ccccc3)c3ccccc[c+]3N2Cc2ccccc2)cc1 (stereo not drawn) [Compound 6f],no or minimal effect,
> 50,122 to 125,C#CCN1[c+]2cccccc2N(CCc2ccccc2)C(C(=O)[O-])C1c1ccccc1 (stereo not drawn) [Compound 6i],no or minimal effect,
> 50,,"O=C([O-])C1C(c2ccc([N+](=O)[O-])cc2)N(Cc2ccccc2)[c+]2cccccc2N1CCc1ccccc1 (stereo not drawn) [Compound 6d, N-Benzyl-N-phenylethyl 4-nitrophenyl troponyl dihydrapyrazine carboxylic acid]",no or minimal effect,
,123 to 125,"CCCCCCCCN1[c+]2cccccc2N(CCc2ccccc2)C(C(=O)[O-])C1c1ccc(F)cc1 (stereo not drawn) [Compound 6k, N-octyl-N-phenylethyl 4-fluorophenyl troponyl dihydrapyrazinium carboxylate]",,
